# Active and inactive are the calls of the source.
# What was measured:
# [1] = target: Eukaryotic translation initiation factor 4H (Homo sapiens, UniProt Q15056); assay: eIF4H binding inhibition – biochemical, uHTS, fluorescence polarization, translation initiation inhibitor project, primary screen (AID 2012)
# [2] = decrease of insulin promoter-GFP reporter – imaging, high-content screening, mouse beta cells (AID 1628); format: functional; conditions: MIN6
# [3] = target: DNA dC->dU-editing enzyme APOBEC-3G (Homo sapiens, UniProt Q9HC16); format: functional;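 also: Dose-response counterscreen measuring inhibition of APOBEC3G DNA deaminase activity, run while confirming APOBEC3A inhibitors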
# [4] = MIN6 cell viability loss – mouse insulinoma, cytotoxicity control, dose response (AID 2122); format: functional;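 also: confirmatory high-throughput counterscreen run to flag cytotoxic compounds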
# [5] = target: Polyadenylate-binding protein 1 (Homo sapiens, UniProt P11940); assay: blockers of PABP interaction with poly(A) – biochemical, fluorescence polarization, […] (AID 2014)
# [6] = target: DNA dC->dU-editing enzyme APOBEC-3A (Homo sapiens, UniProt P31941); assay: Dose Response confirmation of small molecule APOBEC3A DNA Deaminase Inhibitors via a fluorescence-based single-stranded DNA deaminase assay. [Related pubchem assays (depositor defined):AID493011, AID493024]; format: functional
# [7] = target: T1, Heat shock factor protein 1 (Mus musculus, UniProt P38532); assay: enhancement of HSF1-driven luciferase signal – cell-based, NIH3T3, luminescence, dose retest, confirmation (AID 435004); format: functional;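 also: stress induced by proteasome inhibitor MG132 added 30 min after compound; luciferase reporter driven by HSF1 response element in NIH3T3 cells; actives raise luminescence as potentiators of the MG132 stress response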
# T1 sequence (P38532 whole entry): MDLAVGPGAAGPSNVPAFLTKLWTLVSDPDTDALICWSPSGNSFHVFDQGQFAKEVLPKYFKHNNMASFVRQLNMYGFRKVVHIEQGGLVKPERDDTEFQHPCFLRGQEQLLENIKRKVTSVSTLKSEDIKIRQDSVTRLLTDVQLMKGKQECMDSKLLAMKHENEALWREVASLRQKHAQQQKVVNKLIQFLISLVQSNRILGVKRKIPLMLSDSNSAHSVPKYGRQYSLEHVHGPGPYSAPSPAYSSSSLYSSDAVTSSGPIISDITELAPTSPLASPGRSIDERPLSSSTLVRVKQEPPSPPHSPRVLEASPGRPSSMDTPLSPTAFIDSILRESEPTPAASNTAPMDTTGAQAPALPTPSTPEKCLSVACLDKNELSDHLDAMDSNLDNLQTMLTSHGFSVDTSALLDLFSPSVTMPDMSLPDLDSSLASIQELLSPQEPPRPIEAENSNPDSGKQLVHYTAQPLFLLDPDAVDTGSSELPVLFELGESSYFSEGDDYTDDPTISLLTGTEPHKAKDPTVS
# [8] = target: T2, Short transient receptor potential channel 4 (Mus musculus, UniProt Q9QUQ5); assay: block of DAMGO-driven TRPC4 calcium entry – cell-based, HEK293 TRPC4/mu-opioid, Fluo-4 calcium, dose response (AID 434942); format: functional;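 also: potency of inhibitors blocking the TRPC4 calcium response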
# T2 sequence (Q9QUQ5 whole entry): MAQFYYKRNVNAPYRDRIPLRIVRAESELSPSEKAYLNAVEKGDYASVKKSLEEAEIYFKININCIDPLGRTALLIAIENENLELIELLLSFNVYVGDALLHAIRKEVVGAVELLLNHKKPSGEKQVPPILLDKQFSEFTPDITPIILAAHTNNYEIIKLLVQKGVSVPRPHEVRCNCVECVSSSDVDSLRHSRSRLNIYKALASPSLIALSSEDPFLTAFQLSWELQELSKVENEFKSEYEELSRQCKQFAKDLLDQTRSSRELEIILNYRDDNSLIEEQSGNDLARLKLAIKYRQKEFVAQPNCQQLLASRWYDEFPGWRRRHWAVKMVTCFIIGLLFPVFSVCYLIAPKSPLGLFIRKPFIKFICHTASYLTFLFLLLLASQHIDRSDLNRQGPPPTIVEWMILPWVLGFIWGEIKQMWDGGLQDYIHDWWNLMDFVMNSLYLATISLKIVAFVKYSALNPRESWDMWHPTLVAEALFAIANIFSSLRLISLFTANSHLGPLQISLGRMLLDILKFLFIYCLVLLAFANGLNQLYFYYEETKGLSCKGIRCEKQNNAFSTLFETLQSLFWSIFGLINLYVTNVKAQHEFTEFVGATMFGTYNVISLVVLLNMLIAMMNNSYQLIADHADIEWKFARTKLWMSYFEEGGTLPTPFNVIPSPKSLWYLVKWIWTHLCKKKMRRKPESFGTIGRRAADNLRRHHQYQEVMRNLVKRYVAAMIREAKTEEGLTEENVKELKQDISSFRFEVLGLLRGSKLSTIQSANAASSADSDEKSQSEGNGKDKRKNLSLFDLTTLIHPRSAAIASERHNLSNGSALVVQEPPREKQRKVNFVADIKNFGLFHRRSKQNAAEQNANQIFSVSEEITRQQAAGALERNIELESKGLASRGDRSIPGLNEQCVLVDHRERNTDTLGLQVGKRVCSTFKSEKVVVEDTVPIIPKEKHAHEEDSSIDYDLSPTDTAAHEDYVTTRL
# [9] = target: T2, Short transient receptor potential channel 4; assay: SAR Analysis for the identification of selective inhibits of the transient receptor potential cation channel C4 (TRPC4): Automated Electrophysiology. [Related pubchem assays (depositor defined):AID2256]; format: functional
# [10] = restored growth of temperature-sensitive Burl-1 yeast – whole organism, S. cerevisiae, Burl-1 ts mutant, luminescence, counter-screen for SUMOylation pathway inhibitor project, dose response (AID 463199); format: functional
# [11] = target: T3, Replicative DNA helicase DnaB (Mycobacterium tuberculosis, UniProt P9WMR3); assay: DnaB intein splicing inhibitors, dose response, biochemical, cell-free fluorescence (AID 449749); format: functional
# T3 sequence (P9WMR3 whole entry): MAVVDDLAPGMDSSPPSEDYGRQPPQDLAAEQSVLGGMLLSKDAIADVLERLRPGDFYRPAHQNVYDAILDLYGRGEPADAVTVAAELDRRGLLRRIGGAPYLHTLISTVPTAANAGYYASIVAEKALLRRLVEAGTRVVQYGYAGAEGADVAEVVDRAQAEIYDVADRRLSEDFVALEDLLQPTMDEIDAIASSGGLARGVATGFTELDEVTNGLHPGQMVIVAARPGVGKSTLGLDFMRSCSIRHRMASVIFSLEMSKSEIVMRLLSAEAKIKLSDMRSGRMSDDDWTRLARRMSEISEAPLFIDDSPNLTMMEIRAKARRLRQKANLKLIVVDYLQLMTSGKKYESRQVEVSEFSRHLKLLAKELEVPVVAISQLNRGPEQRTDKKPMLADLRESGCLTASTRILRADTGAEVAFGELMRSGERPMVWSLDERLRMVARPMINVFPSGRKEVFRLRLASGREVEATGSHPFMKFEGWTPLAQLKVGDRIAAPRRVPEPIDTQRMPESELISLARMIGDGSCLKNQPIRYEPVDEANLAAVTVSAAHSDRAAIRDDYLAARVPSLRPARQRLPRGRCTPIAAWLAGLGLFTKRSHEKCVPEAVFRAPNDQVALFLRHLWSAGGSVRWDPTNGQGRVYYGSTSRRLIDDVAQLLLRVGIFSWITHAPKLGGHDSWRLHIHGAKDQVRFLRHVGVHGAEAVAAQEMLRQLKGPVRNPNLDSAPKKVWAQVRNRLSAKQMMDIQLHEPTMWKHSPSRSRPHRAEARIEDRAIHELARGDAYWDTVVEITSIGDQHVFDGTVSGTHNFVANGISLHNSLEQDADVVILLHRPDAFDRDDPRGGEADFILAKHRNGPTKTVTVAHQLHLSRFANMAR
# [12] = target: Lysine-specific demethylase 4A (Homo sapiens, UniProt O75164); assay: inhibition of JMJD2A H3K9me3 demethylation – biochemical, DELFIA europium, cherry-picked samples, selectivity assay for GASC-1 inhibitor project, dose response (AID 488840)
# [13] = target: Lysine-specific demethylase 4C (Homo sapiens, UniProt Q9H3R0); assay: inhibition of JMJD2C H3K9me3 demethylation – biochemical, DELFIA europium, cherry-picked samples, dose response (AID 488835); format: functional
# [14] = target: T4, Protein RecA (Mycobacterium tuberculosis, UniProt P9WHJ3); assay: Fluorescence Cell-Free Homogeneous Dose Retest to Identify Inhibitors of RecA-Intein Splicing Activity. [Related pubchem assays (depositor defined):AID2097, AID2223, AID489010, AID492950]; format: functional
# T4 sequence (P9WHJ3 whole entry): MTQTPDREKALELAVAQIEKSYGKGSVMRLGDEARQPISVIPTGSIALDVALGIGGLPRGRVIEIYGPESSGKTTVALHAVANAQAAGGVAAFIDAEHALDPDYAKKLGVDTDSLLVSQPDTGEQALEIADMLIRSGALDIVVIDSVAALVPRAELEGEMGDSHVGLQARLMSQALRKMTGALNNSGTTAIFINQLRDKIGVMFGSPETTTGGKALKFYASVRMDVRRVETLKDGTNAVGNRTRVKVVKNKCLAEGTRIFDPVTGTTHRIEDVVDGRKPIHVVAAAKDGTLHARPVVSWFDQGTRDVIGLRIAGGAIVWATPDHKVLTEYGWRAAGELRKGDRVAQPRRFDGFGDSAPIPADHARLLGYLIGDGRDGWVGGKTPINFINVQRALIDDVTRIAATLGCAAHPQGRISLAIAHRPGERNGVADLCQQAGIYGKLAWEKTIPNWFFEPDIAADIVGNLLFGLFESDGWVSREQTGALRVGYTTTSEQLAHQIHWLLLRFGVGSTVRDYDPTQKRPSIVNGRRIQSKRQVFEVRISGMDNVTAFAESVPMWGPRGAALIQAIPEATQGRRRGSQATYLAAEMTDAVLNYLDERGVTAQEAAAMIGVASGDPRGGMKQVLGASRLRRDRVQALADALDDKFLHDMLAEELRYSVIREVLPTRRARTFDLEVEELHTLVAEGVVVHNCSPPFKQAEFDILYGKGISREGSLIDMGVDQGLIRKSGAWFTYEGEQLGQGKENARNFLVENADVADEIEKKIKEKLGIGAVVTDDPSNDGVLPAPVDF
# [15] = target: T5, Intestinal-type alkaline phosphatase (Mus musculus, UniProt P24822); assay: PubChem AID 488785; format: functional
# [16] = target: T6, Intestinal-type alkaline phosphatase (Homo sapiens, UniProt P09923); assay: inhibition of human intestinal alkaline phosphatase – biochemical, luminescent, uHTS hits, set 2, dose response (AID 488793); format: functional
# [17] = target: T5, Intestinal-type alkaline phosphatase; assay: PubChem AID 488874; format: functional
# [18] = target: T7, Alkaline phosphatase, tissue-nonspecific isozyme (Homo sapiens, UniProt P05186); assay: inhibition of tissue-nonspecific alkaline phosphatase – biochemical, dose response (AID 488882); format: functional
# T7 sequence (P05186 whole entry): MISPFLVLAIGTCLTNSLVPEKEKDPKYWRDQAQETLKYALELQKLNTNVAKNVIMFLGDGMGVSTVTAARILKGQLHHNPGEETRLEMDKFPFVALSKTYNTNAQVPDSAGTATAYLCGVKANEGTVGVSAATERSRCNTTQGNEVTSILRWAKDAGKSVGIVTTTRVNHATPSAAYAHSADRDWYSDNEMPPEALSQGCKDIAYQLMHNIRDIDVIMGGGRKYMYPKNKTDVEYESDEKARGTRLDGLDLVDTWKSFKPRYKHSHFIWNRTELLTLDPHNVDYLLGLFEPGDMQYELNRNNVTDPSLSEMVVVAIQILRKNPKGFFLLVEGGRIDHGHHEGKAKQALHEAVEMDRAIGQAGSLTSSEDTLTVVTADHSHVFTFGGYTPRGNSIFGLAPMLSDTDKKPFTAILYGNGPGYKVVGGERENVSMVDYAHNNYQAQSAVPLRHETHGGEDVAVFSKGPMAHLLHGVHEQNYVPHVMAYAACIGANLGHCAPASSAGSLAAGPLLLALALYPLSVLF
# [19] = target: Large T antigen (Simian virus 40, UniProt P03070); format: functional, Betapolyomavirus macacae;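 also: Confirmatory-stage PubChem screen for compounds that inhibit SV40 T antigen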
# [20] = target: T6, Intestinal-type alkaline phosphatase; assay: activation of human intestinal alkaline phosphatase – biochemical, dose response (AID 488873); format: functional
# [21] = target: T7, Alkaline phosphatase, tissue-nonspecific isozyme; assay: TNAP enzyme inhibition by screening hits, dose response, selectivity assay for mouse IAP inhibitor project, biochemical, human TNAP, uHTS hits (AID 488906); format: functional
# [22] = target: T8, Cytochrome P450 1A2 (Homo sapiens, UniProt P05177);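 also: PubChem cytochrome P450 panel assay, CYP1A2 panel member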
# T8 sequence (P05177 whole entry): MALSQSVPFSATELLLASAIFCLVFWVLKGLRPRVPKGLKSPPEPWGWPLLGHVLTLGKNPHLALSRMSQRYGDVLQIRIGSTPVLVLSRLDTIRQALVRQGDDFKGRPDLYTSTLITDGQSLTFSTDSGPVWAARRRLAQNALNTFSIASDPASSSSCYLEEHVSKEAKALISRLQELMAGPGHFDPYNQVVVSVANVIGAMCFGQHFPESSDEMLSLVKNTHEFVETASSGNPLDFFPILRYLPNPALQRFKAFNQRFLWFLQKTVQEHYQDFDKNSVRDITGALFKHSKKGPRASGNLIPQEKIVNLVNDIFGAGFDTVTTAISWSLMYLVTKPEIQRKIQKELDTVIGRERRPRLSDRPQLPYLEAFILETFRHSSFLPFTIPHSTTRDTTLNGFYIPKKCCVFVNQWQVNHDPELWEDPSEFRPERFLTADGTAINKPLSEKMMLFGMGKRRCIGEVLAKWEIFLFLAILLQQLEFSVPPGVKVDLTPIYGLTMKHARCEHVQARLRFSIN
# [23] = target: T6, Intestinal-type alkaline phosphatase; assay: Dose Response confirmation of uHTS hits from a small molecule inhibitors of human intestinal alkaline phosphatase via a luminescent assay. [Related pubchem assays (depositor defined):AID2544, AID2574]; format: functional
# T6 sequence (P09923 whole entry): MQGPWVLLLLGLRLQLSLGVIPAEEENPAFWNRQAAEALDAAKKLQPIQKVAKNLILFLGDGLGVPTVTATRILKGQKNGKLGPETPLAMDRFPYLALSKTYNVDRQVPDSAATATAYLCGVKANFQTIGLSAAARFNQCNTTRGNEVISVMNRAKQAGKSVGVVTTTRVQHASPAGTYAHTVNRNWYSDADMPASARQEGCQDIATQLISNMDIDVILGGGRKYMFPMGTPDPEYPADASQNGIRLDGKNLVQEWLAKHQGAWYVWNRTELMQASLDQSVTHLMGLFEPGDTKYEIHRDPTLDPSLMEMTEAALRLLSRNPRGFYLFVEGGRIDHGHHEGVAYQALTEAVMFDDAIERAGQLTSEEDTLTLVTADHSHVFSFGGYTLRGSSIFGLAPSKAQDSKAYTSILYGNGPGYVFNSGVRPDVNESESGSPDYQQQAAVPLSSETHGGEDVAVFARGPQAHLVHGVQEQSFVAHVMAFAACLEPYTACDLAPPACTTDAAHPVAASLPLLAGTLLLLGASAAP
# T5 sequence (P24822 whole entry): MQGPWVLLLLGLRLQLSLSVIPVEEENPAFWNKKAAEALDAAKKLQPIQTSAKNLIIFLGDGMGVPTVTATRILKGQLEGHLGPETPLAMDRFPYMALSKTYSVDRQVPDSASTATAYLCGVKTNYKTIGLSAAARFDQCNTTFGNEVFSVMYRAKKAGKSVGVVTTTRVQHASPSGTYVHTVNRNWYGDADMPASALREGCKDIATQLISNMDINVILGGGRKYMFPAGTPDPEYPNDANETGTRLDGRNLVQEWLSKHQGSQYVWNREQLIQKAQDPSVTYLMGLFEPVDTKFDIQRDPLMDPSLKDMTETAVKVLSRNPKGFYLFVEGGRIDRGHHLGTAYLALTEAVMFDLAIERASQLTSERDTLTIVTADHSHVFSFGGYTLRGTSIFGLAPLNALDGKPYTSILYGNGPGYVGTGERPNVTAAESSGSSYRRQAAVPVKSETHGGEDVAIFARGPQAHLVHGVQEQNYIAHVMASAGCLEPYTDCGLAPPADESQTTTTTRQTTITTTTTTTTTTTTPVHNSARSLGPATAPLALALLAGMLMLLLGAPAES
# Sequence of DNA dC->dU-editing enzyme APOBEC-3G (Q9HC16 whole entry): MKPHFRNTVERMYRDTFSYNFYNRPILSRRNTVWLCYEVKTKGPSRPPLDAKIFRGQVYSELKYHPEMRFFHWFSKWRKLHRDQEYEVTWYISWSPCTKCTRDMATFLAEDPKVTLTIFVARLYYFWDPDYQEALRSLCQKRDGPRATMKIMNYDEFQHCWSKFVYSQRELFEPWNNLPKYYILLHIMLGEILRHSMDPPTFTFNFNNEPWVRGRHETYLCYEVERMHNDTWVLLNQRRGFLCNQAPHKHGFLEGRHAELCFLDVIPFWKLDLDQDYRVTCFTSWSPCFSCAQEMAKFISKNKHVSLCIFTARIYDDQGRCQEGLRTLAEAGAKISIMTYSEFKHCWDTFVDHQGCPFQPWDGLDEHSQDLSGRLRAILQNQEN
# Sequence of Lysine-specific demethylase 4A (O75164 whole entry): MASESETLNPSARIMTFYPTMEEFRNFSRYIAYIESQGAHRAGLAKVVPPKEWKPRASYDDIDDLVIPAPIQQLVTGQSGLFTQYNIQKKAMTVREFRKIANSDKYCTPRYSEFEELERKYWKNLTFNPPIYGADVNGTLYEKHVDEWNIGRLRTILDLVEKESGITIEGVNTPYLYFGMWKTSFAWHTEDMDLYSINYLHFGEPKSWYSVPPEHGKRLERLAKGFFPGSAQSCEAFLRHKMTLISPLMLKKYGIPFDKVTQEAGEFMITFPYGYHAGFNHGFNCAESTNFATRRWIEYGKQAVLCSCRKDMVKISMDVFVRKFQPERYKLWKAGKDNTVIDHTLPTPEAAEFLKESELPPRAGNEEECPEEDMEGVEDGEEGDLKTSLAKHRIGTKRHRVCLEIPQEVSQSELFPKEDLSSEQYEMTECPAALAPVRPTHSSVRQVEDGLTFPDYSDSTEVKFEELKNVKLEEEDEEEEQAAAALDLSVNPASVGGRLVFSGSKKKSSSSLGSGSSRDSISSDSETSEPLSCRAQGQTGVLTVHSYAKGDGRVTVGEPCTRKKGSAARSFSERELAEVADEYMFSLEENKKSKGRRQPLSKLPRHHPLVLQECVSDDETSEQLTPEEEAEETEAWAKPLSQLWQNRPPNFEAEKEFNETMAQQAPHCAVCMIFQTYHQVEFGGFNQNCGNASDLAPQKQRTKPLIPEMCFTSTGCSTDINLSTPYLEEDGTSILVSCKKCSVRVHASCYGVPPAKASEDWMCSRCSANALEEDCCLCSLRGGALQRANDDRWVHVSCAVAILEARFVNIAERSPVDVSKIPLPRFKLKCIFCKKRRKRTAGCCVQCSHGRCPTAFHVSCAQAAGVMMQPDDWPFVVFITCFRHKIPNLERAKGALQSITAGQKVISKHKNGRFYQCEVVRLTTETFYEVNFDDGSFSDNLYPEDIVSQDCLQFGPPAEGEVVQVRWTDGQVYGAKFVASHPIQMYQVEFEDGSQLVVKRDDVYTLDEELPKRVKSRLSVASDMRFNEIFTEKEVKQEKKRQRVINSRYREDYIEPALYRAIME
# Sequence of Large T antigen (P03070 whole entry): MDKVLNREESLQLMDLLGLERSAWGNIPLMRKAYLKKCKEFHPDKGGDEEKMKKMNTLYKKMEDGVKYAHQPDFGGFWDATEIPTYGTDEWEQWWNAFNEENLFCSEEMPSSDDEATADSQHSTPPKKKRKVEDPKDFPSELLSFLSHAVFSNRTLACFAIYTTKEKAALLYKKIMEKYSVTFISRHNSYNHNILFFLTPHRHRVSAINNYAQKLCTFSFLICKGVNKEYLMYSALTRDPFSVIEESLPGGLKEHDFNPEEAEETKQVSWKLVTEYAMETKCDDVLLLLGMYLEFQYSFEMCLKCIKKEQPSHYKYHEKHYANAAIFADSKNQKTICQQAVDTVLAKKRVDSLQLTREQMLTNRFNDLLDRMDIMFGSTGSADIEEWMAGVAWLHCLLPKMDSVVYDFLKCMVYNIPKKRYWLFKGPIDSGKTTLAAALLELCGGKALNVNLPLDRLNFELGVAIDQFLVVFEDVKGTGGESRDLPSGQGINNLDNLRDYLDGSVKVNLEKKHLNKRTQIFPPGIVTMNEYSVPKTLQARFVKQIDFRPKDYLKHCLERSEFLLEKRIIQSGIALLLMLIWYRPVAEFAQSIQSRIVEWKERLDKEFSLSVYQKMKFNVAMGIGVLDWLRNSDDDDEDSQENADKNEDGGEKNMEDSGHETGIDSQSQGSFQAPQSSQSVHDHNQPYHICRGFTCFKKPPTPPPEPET
# Sequence of Lysine-specific demethylase 4C (Q9H3R0 whole entry): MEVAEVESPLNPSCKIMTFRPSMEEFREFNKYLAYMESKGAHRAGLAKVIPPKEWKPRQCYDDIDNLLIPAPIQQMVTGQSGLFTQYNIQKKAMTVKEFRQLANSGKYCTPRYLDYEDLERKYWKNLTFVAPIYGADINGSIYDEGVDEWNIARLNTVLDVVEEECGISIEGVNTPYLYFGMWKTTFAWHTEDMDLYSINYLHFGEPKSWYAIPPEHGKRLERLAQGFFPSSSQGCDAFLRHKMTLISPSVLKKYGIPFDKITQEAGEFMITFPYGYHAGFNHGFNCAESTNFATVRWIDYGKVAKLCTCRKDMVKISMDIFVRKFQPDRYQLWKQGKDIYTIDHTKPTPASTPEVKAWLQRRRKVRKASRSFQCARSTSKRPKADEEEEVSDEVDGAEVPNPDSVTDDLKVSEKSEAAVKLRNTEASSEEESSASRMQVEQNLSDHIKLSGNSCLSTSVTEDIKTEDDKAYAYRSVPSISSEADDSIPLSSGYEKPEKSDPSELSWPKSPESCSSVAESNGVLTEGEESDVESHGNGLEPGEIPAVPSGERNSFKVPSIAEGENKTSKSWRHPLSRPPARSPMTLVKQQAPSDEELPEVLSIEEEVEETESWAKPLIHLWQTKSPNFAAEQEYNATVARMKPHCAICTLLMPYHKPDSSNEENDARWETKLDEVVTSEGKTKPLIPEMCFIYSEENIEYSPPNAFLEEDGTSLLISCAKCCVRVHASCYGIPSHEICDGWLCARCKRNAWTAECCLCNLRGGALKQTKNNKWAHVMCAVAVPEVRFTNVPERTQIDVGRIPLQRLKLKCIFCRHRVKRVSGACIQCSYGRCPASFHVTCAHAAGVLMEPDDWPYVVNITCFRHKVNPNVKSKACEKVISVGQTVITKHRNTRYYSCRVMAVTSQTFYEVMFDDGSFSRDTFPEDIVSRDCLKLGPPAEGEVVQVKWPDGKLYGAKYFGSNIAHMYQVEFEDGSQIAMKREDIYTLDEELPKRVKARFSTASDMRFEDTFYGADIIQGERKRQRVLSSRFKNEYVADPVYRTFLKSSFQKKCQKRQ
# Sequence of DNA dC->dU-editing enzyme APOBEC-3A (P31941 whole entry): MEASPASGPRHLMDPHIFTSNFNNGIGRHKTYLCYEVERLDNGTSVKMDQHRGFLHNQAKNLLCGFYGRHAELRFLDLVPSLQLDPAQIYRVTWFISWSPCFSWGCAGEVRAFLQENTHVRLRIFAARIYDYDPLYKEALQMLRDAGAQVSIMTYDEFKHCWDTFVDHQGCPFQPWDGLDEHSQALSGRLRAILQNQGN
smiles,measurement,setting,value
CCCCCn1ccc(=N)cc1,IC50,[1],> 100 µM (inactive)
same,IC50,[2],3.31 µM (active)
same,IC50,[3],1.92 µM (active)
same,IC50,[4],2.58 µM (active)
same,IC50,[5],2.73 µM (active)
same,IC50,[6],1.3 µM (active)
COc1ccc2c(C)cc(N3CCCCCC3)nc2c1,EC50,[7],> 260 µM (inactive)
same,EC50,[8],0.531 µM (active)
same,IC50,[9],2.38 µM (active)
COc1ccc2[nH]cc(C(=O)C(=O)N3CCCCC3)c2c1,AC50,[10],93.6 µM (active)
O=c1[nH]cc(/N=C/c2cc(Cl)cc(Cl)c2O)c(=O)[nH]1,AC50,[11],4.92 µM (active)
same,AC50,[12],18.1 µM (active)
same,AC50,[13],0.749 µM (active)
same,EC50,[14],4.14 µM (active)
N#C/C(=C\c1ccc(O)c(O)c1)C(=O)c1ccc(O)c(O)c1,IC50,[15],7.13 µM (active)
same,IC50,[16],2.68 µM (active)
same,IC50,[17],0.259 µM (active)
same,IC50,[18],9.49 µM (active)
same,IC50,[19],0.82 µM (active)
same,EC50,[20],6.36 µM (active)
same,IC50,[21],> 100 µM (inactive)
same,AC50,[22],31.6 µM (inconclusive)
same,IC50,[23],4.41 µM (active)
